We go through two molecules from PMC2409587 (British Journal of Cancer, 2004).

The format of data set [1] is in vivo, mouse. To be noted: agents at 0.2% in the diet for 2 weeks; result not shown. How it is done: ). Both agents were rapidly cleared from blood and tissues within an hour of administration (Figure 3). […] DMU 212 levels reached a peak after 10 min, except in the case of the colon, in which the peak occurred after 30 min. The peak levels for DMU 212 were 5 μM in the plasma and 8, 11, 11, 5, 10, 7600 and 330 nmols g^−1 tissue in the liver, kidney, lung, brain, heart, small intestinal and colonic mucosae, respectively. We performed a preliminary experiment in order to explore whether the difference in gastrointestinal levels would also be observed when the agents are administered with the diet, the route often used in preclinical cancer chemoprevention studies. Agents were admixed with the diet at 0.2% and fed for 2 weeks.

Data set [2] deals with HCA-7 and HT-29 colon cancer cells. Nature of the data set: Effect of agents on growth of colon cancer cells, range stated over both lines. The class given is cell-based. To be noted: Homo sapiens, 168 h, read-out: IC50 values (cell growth), range over both agents and both cell lines. How it is done: (§1) Cells were seeded (10^4 per well) in 24-well plates and cultured in DMEM containing Glutamax I (Life Technologies, Paisley, UK) and glucose (4.5 g l^−1) and 10% foetal calf serum (Gibco, Paisley, UK). […] Cells were counted 72, 96, 120, 144 and 168 h postaddition of agents using a Z2 Coulter Particle Count and Size Analyzer (Beckman Coulter, High Wycombe, UK). Control cultures contained the vehicle only. […] The IC50 values inserted in Figure 5 were calculated from the linear portion of the cell number-vs agent concentration curves at the 168 h time point.

Data set [3] in a line: Incubation with mouse liver microsomes. The data set is classed as in vitro ADME. To be noted: mouse liver microsomes 0.5 mg protein ml^−1, NADPH 1 mM, substrate 1 mM, 20 min, 37°C. The method, then: Microsomes were prepared by differential centrifugation of mouse liver homogenate first at 9 × 10^3 g (20 min, 4°C), then at 10^5 g (1 h) in a Beckman L-8-60 ultracentrifuge (Beckman Coulter UK Ltd, High Wycombe, Buckinghamshire, UK). The microsomal pellet was suspended in Tris buffer (50 mM, pH 7.4), recentrifuged at 10^5 g (1 h) and resuspended in Tris buffer. Liver microsomes from two to four mice were pooled. […] The addition of one volume of ice-cold methanol terminated the reaction. The mixture was vortexed (30 s), centrifuged (3 min, 13 400 g) and the supernatant was collected and analysed by HPLC.
(§2) HPLC analysis was performed using a Varian Prostar HPLC system (Varian, UK) with a Pro-Star 230 solvent delivery system, a Pro-Star 310 UV–Vis detector, a Pro-Star 363 Fluorescence detector, a 410 Varian autosampler and an Ultracarb C18 column (4.6 mm × 250 mm, 5 μm, Phenomenex, UK). The mobile phase consisted of the three components: aqueous ammonium acetate (pH 6.5, 50 mM), propan-2-ol and acetonitrile. […] The flow rate for both methods was 1 ml min^−1.
(§3) The injection volume of samples reconstituted in the mobile phase was 50 μl.

Another data set concerns HCA-7 colon cancer cells. Nature of the data set: Effect of agents on growth of HCA-7 cells. To be noted: Homo sapiens, 168 h time point, cell counts. The data set is classed as cell-based. How it is done:
as §1

Data set [4] in a line: Metabolite characterisation in plasma and tissues of dosed mice. The class given is in vivo, mouse. To be noted: 240 mg/kg i.g., HPLC cochromatography and mass spectrometry.
Experimental: The vehicle was glycerol formal, and the dose volume approximately 10 ml kg^−1. […] Mice were killed by terminal gaseous anaesthesia at 10, 30, 60 or 120 min postdosing. Blood was collected by cardiac puncture, and plasma was obtained by centrifugation. The liver, kidney, lung, heart, brain and gut were excised, and scrapings were obtained from small intestine and colon. Tissues were snap-frozen (liquid nitrogen) and stored at −80°C until analysis.
Tissues were homogenised (1 : 1 volume to tissue mass ratio) in 50 mM Hepes buffer (Sigma, Poole, UK) using a hand-held glass homogeniser. […] After vigorous shaking, mixtures were kept on ice (5–10 min) and centrifuged (2800 g, 10 min, 4°C). The supernatants were dried under a stream of nitrogen and reconstituted in mobile phase (100 μl).
HPLC analysis was performed using a Varian Prostar HPLC system (Varian, UK) with a Pro-Star 230 solvent delivery system, a Pro-Star 310 UV–Vis detector, a Pro-Star 363 Fluorescence detector, a 410 Varian autosampler and an Ultracarb C18 column (4.6 mm × 250 mm, 5 μm, Phenomenex, UK). […]
Mass spectrometry was performed using a Quattro Bio-Q tandem quadrupole mass spectrometer upgraded to Quattro MK II specifications (Micromass, Manchester, UK) with a pneumatically assisted electrospray interface. Samples were analysed in positive ion mode.
The nature of data set [5]: Plasma and tissue levels in mice after a single intragastric dose. The class given is in vivo, mouse. To be noted: for peak concentration / AUC: mice, 240 mg/kg i.g.; for AUC: 0-120 min. How it is done: Animal experiments were conducted as stipulated by Project Licence 40/2496 granted by the UK Home Office. Experiments were vetted and approved by the Leicester University Animal Welfare Committee and complied with the UKCCCR guidelines for the welfare of animals in experimental neoplasia. […] The vehicle was glycerol formal, and the dose volume approximately 10 ml kg^−1. In the case of DMU 212, the vehicle also contained 10% DMSO. Mice were killed by terminal gaseous anaesthesia at 10, 30, 60 or 120 min postdosing. Blood was collected by cardiac puncture, and plasma was obtained by centrifugation. The liver, kidney, lung, heart, brain and gut were excised, and scrapings were obtained from small intestine and colon. Tissues were snap-frozen (liquid nitrogen) and stored at −80°C until analysis.
Tissues were homogenised (1 : 1 volume to tissue mass ratio) in 50 mM Hepes buffer (Sigma, Poole, UK) using a hand-held glass homogeniser. An aliquot (250 μl) of homogenate, to which an internal standard had been added was vortexed, followed by the addition of acetonitrile (1 ml). After vigorous shaking, mixtures were kept on ice (5–10 min) and centrifuged (2800 g, 10 min, 4°C). The supernatants were dried under a stream of nitrogen and reconstituted in mobile phase (100 μl).
as §2, §3
The curves were characterised by regression coefficients of R^2=0.99 or above. […] Therefore, metabolites were not quantitated.
The area under the plasma or tissue concentration vs time curve (AUC) values were calculated using the trapezoidal rule (WinNonlin v.1.1, Scientific Consultants, USA).

For data set [6] the following is noted: rats, ref Verschoyle et al, unpublished, cited from earlier work.
The test system of another data set is HT-29 colon cancer cells. The experiment in a line: Effect of agents on growth of HT-29 cells. To be noted: Homo sapiens, read-out: IC50 (cell growth). The class given is cell-based. How it is done: as §1
The subject of data set [7] is transformed human lung-derived cells. Set-up: method as in Lu et al, 2001. To be noted: ref Lu et al, 2001; cited from earlier work.
[8] abbreviates: plasma and tissues (for DMU 212 except colon), 10 min was the first time point.

Where two headings read alike, the source gives them in different places.

As a reminder, the IC50 is the concentration needed to halve the response being measured. On to `COc1ccc(C=Cc2cc(OC)c(OC)c(OC)c2)cc1` [DMU 212, 3,4,5,4′-tetramethoxystilbene], for which, in [1], the “colonic levels of DMU 212 relative to those of resveratrol” value is on record as “two-fold”. Also, the IC50 was 6 to 26 µM in data set [2]; 6 ± 0.2 µM in the data set with HCA-7 colon cancer cells; 11.3 ± 1.1 µM in the data set on HT-29 colon cancer cells (HT-29, 168 h). In data set [3], the “microsomal biotransformation (HPLC peaks besides parent)” value is “afforded peaks in addition to that of parent DMU 212”. The “metabolism in mice in vivo” value in data set [4] is “underwent metabolic hydroxylation or single and double O-demethylation”. Besides, the peak concentration in data set [5] (brain) is reported as 5 nmols g^−1 tissue; in data set [5] (colonic mucosa), 330 nmols g^−1 tissue; in [5] (heart), 10 nmols g^−1 tissue; in [5] (kidney), 11 nmols g^−1 tissue; in data set [5] (liver), 8 nmols g^−1 tissue; in [5] (lung), 11 nmols g^−1 tissue. Further, the peak concentration came to 5 µM in data set [5] (plasma) and 7600 nmols g^−1 tissue in [5] (small intestinal mucosa). In addition, the AUC was 193 nmoles ml^−1 or g^−1 min in data set [5] (brain); 19 256 nmoles ml^−1 or g^−1 min in data set [5] (colonic mucosa); 750 nmoles ml^−1 or g^−1 min in data set [5] (heart); 369 315 nmoles ml^−1 or g^−1 min in data set [5] (intestinal mucosa); 566 nmoles ml^−1 or g^−1 min in data set [5] (kidney); 432 nmoles ml^−1 or g^−1 min in data set [5] (liver). For the same molecule, the AUC in [5] (lung) is given as 778 nmoles ml^−1 or g^−1 min; in data set [5] (plasma), 246 nmoles ml^−1 or g^−1 min. The “time at which levels peaked” value in data set [5] (colon) was 30 min; in data set [5] (setting [8]), 10 min. Further, the “factor by which peak level exceeded the concentration arresting transformed lung cell growth (10 μM)” value in [5] (small intestinal mucosa) was 760. The toxicity entry in data set [6] (single doses of up to 40 mg kg^−1 i.v.) and in data set [6] (single doses of up to 400 mg kg^−1 p.o.) was “devoid of any toxicity” each time. Further, the “concentration required to cause significant arrest of transformed lung cell growth in vitro” value in [7] is 10 µM.

Consider `Oc1ccc(/C=C/c2cc(O)cc(O)c2)cc1` [resveratrol, trans-3,5,4′-trihydroxystilbene, reference compound], for which the half-maximal inhibitory concentration (IC50) in data set [2] (HCA-7 and HT-29 cells) is 6 to 26 µM; in the data set on HT-29 colon cancer cells (HT-29 cells, 168 h time point, cell counts), 19.9 ± 0.3 µM. Moreover, in [3], the “microsomal biotransformation (HPLC peaks besides parent)” value is listed as “did not yield any peak in addition to that of the parent substrate”. The peak concentration in data set [5] (brain) amounted to 1.2 nmols g^−1 tissue; in data set [5] (colonic mucosa) it was 30 nmols g^−1 tissue; in data set [5] (heart), 75 nmols g^−1 tissue; in data set [5] (kidney) it was 16 nmols g^−1 tissue; in data set [5] (liver) it was 51 nmols g^−1 tissue; in [5] (lung), 50 nmols g^−1 tissue. The peak concentration is 32 µM in data set [5] (plasma) and 960 nmols g^−1 tissue in data set [5] (small intestinal mucosa). Also, the AUC was 103 nmoles ml^−1 or g^−1 min in data set [5] (brain); 2869 nmoles ml^−1 or g^−1 min in [5] (colonic mucosa); 2072 nmoles ml^−1 or g^−1 min in data set [5] (heart); 36 690 nmoles ml^−1 or g^−1 min in data set [5] (intestinal mucosa); 785 nmoles ml^−1 or g^−1 min in [5] (kidney); 2150 nmoles ml^−1 or g^−1 min in data set [5] (liver). The AUC in data set [5] (lung) is recorded as 1123 nmoles ml^−1 or g^−1 min; in data set [5] (plasma), 863 nmoles ml^−1 or g^−1 min. In addition, the “time at which levels peaked” value in data set [5] (setting [8]) is 10 min.
